Laboratory results as given in patent US20080064675A1, “Use of Aromatic flavoring agents with high melting point as solubilizing agents” (priority 2005, published 2008).

Assay: trans-anethole and vanillin in compositions of modafinil (Example 3)
Assay type: physicochemical
Procedure: 200 mg of modafinil were weighted in two test tubes (A and B). 2 mL of benzyl alcohol were added to test tube A and 200 mg of vanillin, 2 mL of anethole and 2 mL of benzyl alcohol were added to test tube B. The test tubes were stirred and heated to 60° C. Further, the tubes were cooled at room temperature.

NC(=O)C[S+]([O-])C(c1ccccc1)c1ccccc1 (centres unmarked) [modafinil]
crystallization on cooling at room temperature (tube A: 200 mg in 2 mL benzyl alcohol): promptly crystallized | crystallization after cooling at room temperature (tube B: 200 mg vanillin, 2 mL anethole and 2 mL benzyl alcohol, 12 hours after cooling): no crystals were noted
